Laboratory results from patent US11220534B2, “Treatment of neurological diseases” (Lancaster University Business Enterprises Limited, priority 2016, dated 2022).
Where no end group is shown, it is not given here. [ ]: non-standard residue; d: D form. Aib = CC(C)(N)C(=O)O

Test system: C57BL/6 mice given MPTP
Assay: Immunohistochemistry for TH in the substantia nigra pars compacta, MPTP Parkinson mouse model
Type: in vivo
Settings: 10 nmol/kg i.p. once daily for 2 weeks, FIG. 4, N=6 per group
Excerpt: A standard model to induce Parkinson like symptoms in mice is the injection of the chemical (MPTP) (Li et al., 2009). This chemical impairs or kills neurons in the brain that produce dopamine. The mice develop motor impairments, and the dopaminergic neurons in the brain are reduced in numbers and function. The enzyme tyrosine hydroxylase (TH) is required to synthesise dopamine. A loss of TH signifies a loss of dopamine production (Harkavyi et al., 2008).
Adult male C57BL/6 mice were given the dopaminergic toxin MPTP (20 mg/kg in 0.1 mL of PBS i.p. at 2-h intervals of 4 doses MPTP; Sigma) or vehicle (PBS) for one day. […]
Immunohistochemistry for TH in the Substantia Nigra Pars Compacta and the Striatum Six animals per group were analysed for expression of tyrosine hydroxylase (TH), a marker for dopamine production. Coronal brain sections (20 μm) from striatum (bregma […]) and SNpc (bregma […]) were analysed by immunohistochemistry using antibodies recognising TH.
Sections were cut on a cryostat and postfixed in 4% paraformaldehyde, washed in PBS, treated with 0.3% H2O2 in methanol for 20 min, and washed again. […] For each animal, three tissue sections from one level of striatum were stained and analysed for TH-positive fibre innervation. […] Two tissue sections from each level were quantified by immunohistochemistry. […]

“YXEGTFTSDYSIYLDKQAAXEFVNWLLAGGPSSGAPPPSKRRQRRKKRGY-NH2 (Y[Aib]EGTFTSDYSIYLDKQAA[Aib]EFVNWLLAGGPSSGAPPPSKRRQRRKKRGY-NH2) [DA5, No. 12; X=aminoisobutyric acid]” was tested, and the “MPTP-induced reduction of TH in the substantia nigra, pars compacta (protection of dopaminergic neurons)” value was “protected dopaminergic neurons at a greater rate than the single GIP and GLP-1 analogues”.
